Experimental data reported in ChEMBL document CHEMBL6134800, “Applications of innovative synthetic strategies in anticancer drug discovery: The driving force of new chemical reactions” (Bioorg Med Chem Lett, 2025).
Values after ≈ are worked out from the molar mass of the structure shown. One block for each molecule: values may come before it.

How the values were obtained:
[1] = Antioxidant activity assessed as hydroxyl radical scavenging activity; type: functional
A549 [2] = assay: Growth inhibition of human A549 cells measured for 48 hrs by SRB assay; type: functional
PC-3 = assay: Growth inhibition of human PC-3 cells measured for 48 hrs by SRB assay; type: functional
MCF7 [3] = assay: Growth inhibition of human MCF7 cells measured for 48 hrs by SRB assay; type: functional
HepG2 [4] = assay: Growth inhibition of human HepG2 cells measured for 48 hrs by SRB assay; type: functional
[5] = Antioxidant activity assessed as DPPH radical scavenging activity; type: functional
KBv200 = assay: Cytotoxicity against human KBv200 cells assessed as reduction in cell viability incubated for 72 hrs by SRB assay; type: functional, cell-based; conditions: KBv200, 72 h
K562/Adr = assay: Antiproliferative activity against human K562/Adr cells assessed as reduction in cell growth incubated for 72 hrs by MTT assay; type: functional, cell-based
HeLa [6] = assay: Antiproliferative activity against human HeLa cells assessed as reduction in cell viability incubated for 48 hrs by MTT assay; type: functional, cell-based
HCT-116 [7] = assay: Anticancer activity against human HCT-116 cells assessed as inhibition of cell viability at 20 uM relative to control; type: functional
HCT-116 [8] = assay: Anticancer activity against human HCT-116 cells assessed as reduction in cell viability; type: functional, cell-based
HeLa [9] = assay: Antiproliferative activity against human HeLa cells assessed as reduction in cell growth by MTT assay; type: functional, cell-based
A549 [10] = assay: Antiproliferative activity against human A549 cells assessed as reduction in cell growth by MTT assay; type: functional, cell-based
DU-145 = assay: Cytotoxicity against human DU-145 cells assessed as reduction in cell viability incubated for 48 hrs by SRB assay; type: functional, cell-based; conditions: DU-145, 48 h
MDA-MB-231 [11] = assay: Cytotoxicity against human MDA-MB-231 cells assessed as reduction in cell viability incubated for 48 hrs by SRB assay; type: functional, cell-based; conditions: MDA-MB-231, 48 h
HepG2 [12] = assay: Cytotoxicity against human HepG2 cells assessed as reduction in cell viability incubated for 48 hrs by SRB assay; type: functional, cell-based; conditions: HepG2, 48 h
HeLa [13] = assay: Cytotoxicity against human HeLa cells assessed as reduction in cell viability incubated for 48 hrs by SRB assay; type: functional, cell-based
Bacillus subtilis = assay: Antibacterial activity against Bacillus subtilis assessed as reduction in bacterial growth; type: functional, organism-based
Escherichia coli = assay: Antimicrobial activity against Escherichia coli assessed as reduction in microbial growth; type: functional, organism-based
BXPC-3 = assay: Antiproliferative activity against human BXPC-3 cells assessed as reduction in cell growth incubated for 72 hrs by MTT assay; type: functional, cell-based; conditions: Homo sapiens, BXPC-3, 72 h
MDA-MB-231 [14] = assay: Antiproliferative activity against human MDA-MB-231 cells; type: functional, cell-based
T47D = assay: Antiproliferative activity against human T47D cells; type: functional, cell-based
MCF7 [15] = assay: Antiproliferative activity against human MCF7 cells; type: functional, cell-based
LoVo = assay: Antiproliferative activity against human LoVo cells; type: functional, cell-based
HCT-116 [16] = assay: Antiproliferative activity against human HCT-116 cells; type: functional, cell-based
[17] = target: Cyclin-dependent kinases regulatory subunit 1/S-phase kinase-associated protein 2 (Homo sapiens) (UniProt P61024+Q13309); assay: Inhibition of SKP2/CKS1 (unknown origin) protein-protein interaction at 50 uM relative to control; type: protein assay
Chain of Cyclin-dependent kinases regulatory subunit 1/S-phase kinase-associated protein 2 (Homo sapiens) (P61024 2-79 limits assumed): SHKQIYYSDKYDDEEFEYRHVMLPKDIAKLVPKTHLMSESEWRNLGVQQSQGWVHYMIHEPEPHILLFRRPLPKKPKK
Chain of Cyclin-dependent kinases regulatory subunit 1/S-phase kinase-associated protein 2 (Homo sapiens) (Q13309 whole entry partner): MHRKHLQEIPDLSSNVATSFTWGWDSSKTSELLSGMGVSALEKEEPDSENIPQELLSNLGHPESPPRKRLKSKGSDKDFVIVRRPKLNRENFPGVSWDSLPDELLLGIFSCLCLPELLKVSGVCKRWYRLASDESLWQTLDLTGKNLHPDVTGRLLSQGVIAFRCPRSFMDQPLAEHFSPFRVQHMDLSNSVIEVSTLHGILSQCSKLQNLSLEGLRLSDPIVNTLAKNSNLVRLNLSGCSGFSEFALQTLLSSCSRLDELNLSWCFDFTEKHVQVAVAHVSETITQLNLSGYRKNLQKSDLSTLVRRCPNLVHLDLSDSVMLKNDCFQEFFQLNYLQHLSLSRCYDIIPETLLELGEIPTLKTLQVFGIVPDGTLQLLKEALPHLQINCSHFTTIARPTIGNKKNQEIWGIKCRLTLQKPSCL

A549 [18] = assay: Cytotoxicity against human A549 cells assessed as reduction in cell viability by MTT assay; type: functional, cell-based
MCF7 [19] = assay: Cytotoxicity against human MCF7 cells assessed as reduction in cell viability by MTT assay; type: functional, cell-based
[20] = Cytotoxicity against human BEAS-2B cells assessed as reduction in cell viability by MTT assay; type: toxicity, cell-based
HeLa [21] = assay: Antiproliferative activity against human HeLa cells assessed as reduction in cell viability incubated for 24 hrs by MTT assay; type: functional, cell-based
A549 [22] = assay: Antiproliferative activity against human A549 cells assessed as reduction in cell viability incubated for 24 hrs by MTT assay; type: functional, cell-based; conditions: A549, 24 h
HCT-116 [23] = assay: Antiproliferative activity against human HCT-116 cells assessed as reduction in cell viability incubated for 24 hrs by MTT assay; type: functional, cell-based; conditions: HCT-116, 24 h
A549 [24] = assay: Cytotoxicity against human A549 cells assessed as reduction in cell growth by resazurin assay; type: functional, cell-based
NIH3T3 = assay: Cytotoxicity against mouse NIH/3T3 cells assessed as reduction in cell growth by resazurin assay; type: functional, cell-based
HL-60 = assay: Cytotoxicity against human HL-60 cells assessed as reduction in cell growth by resazurin assay; type: functional, cell-based

Compound: CC(C)OC(=O)C1=CN(c2ccccc2)CC(O)(c2cccc(Cl)c2)O1 (stereo not drawn)
inhibition at 20 µM (HCT-116 [7]): 77% | IC50 (HCT-116 [8]): 7.1 µM

Compound: Cc1c2n(c3ccccc13)C(O)(C(F)(F)F)C=C2c1ccccc1 (stereo not drawn)
IC50 (HeLa [9]): 31.6 µM | IC50 (A549 [10]): 1.26 µM

Compound: COc1cccc2c1C(=O)c1c(O)c3c(c(O)c1C2=O)C[C@@](O)(C(=O)CO)C[C@@H]3O[C@H]1C[C@H](N)[C@H](O)[C@H](C)O1.Cl [DOXORUBICIN HYDROCHLORIDE]
IC50 (DU-145): 3.82 µg/mL | IC50 (MDA-MB-231 [11]): 8.64 µg/mL | IC50 (HepG2 [12]): 26.7 µg/mL | IC50 (HeLa [13]): 12.6 µg/mL

Compound: C[C@H]1c2cccc(O)c2C(=O)C2=C(O)[C@]3(O)C(=O)C(C(N)=O)=C(O)[C@@H](N(C)C)[C@@H]3[C@@H](O)[C@@H]21 [DOXYCYCLINE ANHYDROUS]
IC50 (Bacillus subtilis): 0.126 µM | IC50 (Escherichia coli): 0.1 µM

Compound: O=C(CCCCCCC(=O)Nc1ccccc1)NO [VORINOSTAT]
IC50 (LoVo): 0.74 µM | IC50 (HCT-116 [16]): 10.1 µM

Compound: O=NN(CCCl)C(=O)NCCCl [CARMUSTINE]
IC50 (A549 [18]): 6.35 µg/mL (≈ 29.7 µM) | IC50 (MCF7 [19]): 9.34 µg/mL (≈ 43.6 µM) | IC50 [20]: 6.52 µg/mL (≈ 30.5 µM)

Compound: COC(=O)c1nc2nc(Oc3ccccc3)c(C#N)c(-c3cccc([N+](=O)[O-])c3)c2c(N)c1C(=O)OC
IC50 (A549 [18]): 6.12 µg/mL (≈ 12.3 µM) | IC50 (MCF7 [19]): 1.48 µg/mL (≈ 2.96 µM) | IC50 [20]: 4.09 µg/mL (≈ 8.19 µM)

Compound: N#CC1=C(N)Oc2ccccc2C1P(=O)(OCc1ccccc1)OCc1ccccc1 (stereo not drawn)
IC50 (A549 [24]): 26.5 µM | IC50 (NIH3T3): 8.73 µM | IC50 (HL-60): 6.25 µM | IC50 (Bacillus subtilis): > 10 µM | IC50 (Escherichia coli): > 10 µM

Compound: CC(C)C[C@H](NC(=O)[C@H](Cc1ccccc1)NC(=O)c1cnccn1)B(O)O [BORTEZOMIB]
IC50 (HL-60): 7.42 µM

More lines, main results first:

IC50 [1]: 34.8 µM | GI50 (A549 [2]): < 10 µg/mL | GI50 (PC-3): < 10 µg/mL | GI50 (MCF7 [3]): < 10 µg/mL | GI50 (HepG2 [4]): < 10 µg/mL | IC50 [5]: 32.1 µM
Compound: CCc1cc(C(=O)c2ccccc2Cl)c(NC(c2cccs2)c2c(O)ccc3ccccc23)s1 (stereo not drawn)

IC50 (K562/Adr): 1.03 µM
Compound: CC(=O)O[C@@]12CO[C@@H]1C[C@H](O)[C@@]1(C)C(=O)[C@H](O)C3=C(C)[C@@H](OC(=O)[C@H](O)[C@@H](NC(=O)OC(C)(C)C)c4ccccc4)C[C@@](O)([C@@H](OC(=O)c4ccccc4)[C@H]21)C3(C)C [DOCETAXEL ANHYDROUS]
IC50 (KBv200): 0.104 µM

IC50 (HeLa [6]): 23.8 µM
Compound: Cc1nn(-c2ccc(C(C)C)cc2)c(O)c1-c1ccccc1C1=Nc2ccccc2C1(C)C

IC50 (HeLa [6]): 27.3 µM
Compound: Cc1nn(-c2ccc(C#N)cc2)c(O)c1-c1ccccc1C1=Nc2ccccc2C1(C)C

IC50 (HeLa [9]): 2.69 µM | IC50 (A549 [10]): 6.34 µM
Compound: Cc1c2n(c3ccc(F)cc13)C(O)(C(F)(F)F)C=C2c1ccccc1 (stereo not drawn)

IC50 (BXPC-3): 6.1 µM
Compound: Cc1ccc([C@H]2NC(=O)n3c(cc4ccccc43)C23CC3)cc1 (stereo in doubt; (R)-16a)

IC50 (MDA-MB-231 [14]): 3.13 µM | IC50 (T47D): 5.37 µM | IC50 (MCF7 [15]): 3.92 µM | IC50 (LoVo): 10.3 µM | IC50 (HCT-116 [16]): 12.6 µM
Compound: C=C1N(S(=O)(=O)c2ccc(C)cc2)c2ccccc2C1(C)N (racemic)

inhibition [17]: 57%
Compound: COc1cc(OC)c(-c2cc(CC3c4ccccc4C(=O)N3c3ccc(Br)cc3)nc3ncnn23)c(OC)c1 (stereo not drawn)

IC50 (HeLa [9]): 2.17 µM | IC50 (A549 [10]): 11.9 µM
Compound: OC1(C(F)(F)F)C=C(c2ccccc2)c2cc3ccccc3n21 (stereo not drawn)

IC50 [1]: 32.8 µM | GI50 (A549 [2]): < 10 µg/mL | GI50 (PC-3): < 10 µg/mL | GI50 (MCF7 [3]): < 10 µg/mL | GI50 (HepG2 [4]): < 10 µg/mL | IC50 [5]: 33.5 µM
Compound: CCc1cc(C(=O)c2ccccc2Cl)c(NC(c2cc(OC)c(OC)c(OC)c2)c2c(O)ccc3ccccc23)s1 (stereo not drawn)

IC50 [1]: 25.1 µM | GI50 (A549 [2]): < 10 µg/mL | GI50 (PC-3): < 10 µg/mL | GI50 (MCF7 [3]): < 10 µg/mL | GI50 (HepG2 [4]): < 10 µg/mL | IC50 [5]: 27.3 µM
Compound: O=C1O[C@H]([C@@H](O)CO)C(O)=C1O [ASCORBIC ACID]

inhibition [17]: 45%
Compound: COc1cc(OC)c(-c2cc(CC3c4ccccc4C(=O)N3c3ccc(C)cc3)nc3ncnn23)c(OC)c1 (stereo not drawn)

IC50 (HeLa [21]): 1.6 µM | IC50 (A549 [22]): 9.18 µM | IC50 (HCT-116 [23]): 1.63 µM
Compound: O=C1/N=C2/c3ccccc3C(=O)C23C(=C(c2cccs2)N2CCc4cccc3c42)C(=O)c2ccccc21 (stereo not drawn)

IC50 (HCT-116 [8]): 9.4 µM
Compound: CC(C)OC(=O)C1=CN(c2ccc3ccccc3c2)CC(O)(c2ccccc2)O1 (stereo not drawn)
inhibition at 20 µM (HCT-116 [7]): 56%
